Experiment [1] concerns GFP-FAN1. Nature of the experiment: cycloheximide chase, FAN1 protein half-life. The format is cell-based, human. The settings on record: U2OS eGFP-FAN1 cells, CHX 100 μg/ml, n = 3. How it is done: If not stated otherwise, cells were lysed in RIPA buffer (50 mM Tris-HCl, pH 7.5, 150 mM NaCl, 1% IGEPAL, 0.5% sodium deoxycholate, 0.1% SDS) supplemented with phosphatase inhibitors (20 mM NaF and 1 mM Na3VO4) and protease inhibitors (1 mM benzamidine and 0.1 mM PMSF), incubated with Benzonase (Merck) for at least 30 min at 4 °C, and clarified by centrifugation. Proteins were resolved by SDS-PAGE and transferred to nitrocellulose membranes. Immunoblots were performed with the indicated antibodies, and proteins were visualized using the Advansta WesternBright ECL reagent and the Fusion Solo S imaging system. Relative protein levels were determined by quantification of the protein of interest band intensity normalized to the loading control with the ImageJ software. […]
were determined by quantification of FAN1 band intensity (normalized to α-Tubulin) with the ImageJ software. […] 24 h post induction, cells were either mock-treated or treated with CHX (100 μg/ml) for the indicated time points and whole-cell lysates were analysed by immunoblotting (top panel). Relative GFP-FAN1 protein levels were determined by quantification of GFP-FAN1 band intensity (normalized to GAPDH) with the ImageJ software (bottom panel; siCtrl: black square; siUSP7#1: blue triangle; siUSP7#2: cyan inverted triangle). […] Inputs and recovered protein complexes were analysed by immunoblotting. […]

Experiment [2] concerns GFP-FAN1 protein level. Briefly: immunoblot of GFP-FAN1 protein levels, U2OS eGFP-FAN1 cells. The format is cell-based, human. The note with it: USP7-depleted U2OS eGFP-FAN1 cells, MG-132 10 μM for 6 h. How it is done:
(§1) Fig. 3 USP7 deubiquitinates FAN1 controlling its protein levels. A RPE-1 parental and p53 KO cell lines were transfected with either non-targeting (Ctrl) or USP7 siRNA oligos. 48 h later, whole-cell lysates were analysed by immunoblotting. B Doxycycline-inducible U2OS^eGFP-FAN1 cells were transfected with either non-targeting (Ctrl) or USP7 siRNA oligos. 24 h later, GFP-FAN1 expression was induced with Dox (100 ng/ml) for 24 h and whole-cell lysates were analysed by immunoblotting. C Same cells as in B were induced with Dox (100 ng/ml). 24 h later, cells were either mock-treated with DMSO (–) or treated (+) with either FT671 or GNE-6640 (10 μM) for 24 h and whole-cell lysates were analysed by immunoblotting. D Same cells as in B were transfected with either non-targeting (Ctrl) or USP7 siRNA oligos. […] 24 h post induction, cells were either mock-treated (−) or treated (+) with MG-132 (10 μM) for 6 h and whole-cell lysates were analysed by immunoblotting. […] 24 h post induction, whole-cell lysates were analysed by immunoblotting. […] Inputs and recovered protein complexes were analysed by immunoblotting. […] Inputs and recovered protein complexes were analysed by immunoblotting. […] In (A–E), relative FAN1 protein levels were determined by quantification of FAN1 band intensity (normalized to GAPDH or Lamin B1 loading controls) with the ImageJ software. […]

Experiment [3] has as its system FAN1 protein level. Nature of the experiment: immunoblot of FAN1 protein levels, RPE-1 cells. The settings on record: USP7-depleted RPE-1 cells, MG-132 10 μM for 6 h. In kind it is cell-based, human. How it is done: as §1
The subject of experiment [4] is FAN1. Nature of the experiment: pull-down of MBP-His-FAN1 by biotin-tagged USP7 fragments. The settings on record: biotin-tagged USP7 fragments 6 µg, MBP-His-FAN1 1 µg. The format is binding, human. The method, then: All plasmids were transformed into BL21(DE3)-pBirAcm cells. The cells were grown using a Large-scale EXpression (LEX) bioreactor at 37 °C. Once OD600 reached 0.7, the temperature was reduced to 15 °C. At OD600 0.8-1, expression of biotinylated proteins was induced by adding 25 mg/L biotin and 0.5 mM isopropyl β-d-1-thiogalactopyranoside (IPTG), and growth continued overnight. Cell cultures were harvested by centrifugation at 6500 g, 10 min, 10 °C (JLA8.1000). Pellets were flash-frozen in liquid nitrogen and stored at −80 °C prior to purification. Cell pellets were thawed, diluted with pre-chilled resuspension buffer (20 mM HEPES pH7.4, 500 mM NaCl, 5% (v/v) glycerol, 1 mM TCEP) and supplemented with 3 μg/ml benzonase, 2 mM MgSO4 and 0.8 mM PMSF/benzamidine-HCl. The mixture was homogenized and lysed by sonication, 60 cycles of 5 s pulse followed by 7.5 s rest. Cell lysates were clarified by centrifugation at 40000 g, 1 hr, 10 °C (JLA16.250). […] Protein purity was analysed by SDS-PAGE and identity was confirmed by mass spectrometry. […]
Transformed clones of chemocompetent BL21 bacteria were picked and inoculated in LB medium supplemented with 50 μg/ml kanamycin, subsequently incubated at 37 °C overnight under agitation at 250 rpm. […] Purity of the protein was assessed by boiling in SDS sample buffer and separating by SDS-PAGE followed by staining using Coomassie Blue. […]

Where a SMILES comes first, the peptide text is derived from it. The star is where a group is joined. Cbz = O=C(OCc1ccccc1)*

As for `C[C@@H]1C[C@@H]([C@H](O)CC2CC(=O)NC(=O)C2)C(=O)[C@@H](C)C1` [CHX, cycloheximide], the FAN1 protein half-life result in experiment [1] is given as “reduced protein half-life”.

For `CC(C)C[C@@H](C=O)NC(=O)[C@H](CC(C)C)NC(=O)[C@H](CC(C)C)NC(=O)OCc1ccccc1` [MG132] (Cbz-Leu-Leu-Leu-aldehyde), the “FAN1 levels with proteasome inhibitor” value in experiment [2] and in experiment [3] was “FAN1 levels were restored” each time.

For the compound “TRAF domain: purified recombinant biotin-tagged USP7 fragment”, the “binding of USP7 domain to FAN1 in vitro” value in experiment [4] is “strongest”.

Values taken from PMC13086964, “USP7 deubiquitinase stabilizes FAN1 to support DNA crosslink repair and suppress CAG repeat expansion” (Nature Communications, 2026).
